Experimental data published in ChEMBL document CHEMBL1275539 (2008).
In brackets after ≈: the same amount, converted by molar mass.

Assays:
Format in all cases: functional
[1] = tested on: Streptococcus pneumoniae; assay: Antibacterial activity against penicillin-susceptible Streptococcus pneumoniae isolate by agar dilution method
[2] = tested on: Streptococcus pneumoniae; assay: Antibacterial activity against cefotaxime-intermediate Streptococcus pneumoniae isolate by agar dilution method
[3] = tested on: Streptococcus pneumoniae; assay: Antibacterial activity against levofloxacin-resistant Streptococcus pneumoniae assessed as percent susceptible isolates by agar dilution method
[4] = tested on: Streptococcus pneumoniae; assay: Antibacterial activity against penicillin-susceptible Streptococcus pneumoniae assessed as percent susceptible isolates by agar dilution method
[5] = tested on: Streptococcus pneumoniae; assay: Antibacterial activity against erythromycin-resistant Streptococcus pneumoniae assessed as percent susceptible isolates by agar dilution method
[6] = tested on: Streptococcus pneumoniae; assay: Antibacterial activity against amoxicillin-resistant Streptococcus pneumoniae assessed as percent susceptible isolates by agar dilution method
[7] = tested on: Streptococcus pneumoniae; assay: Antibacterial activity against cefotaxime-intermediate Streptococcus pneumoniae assessed as percent susceptible isolates by agar dilution method
[8] = tested on: Streptococcus pneumoniae; assay: Antibacterial activity against amoxicillin-resistant Streptococcus pneumoniae isolate by agar dilution method
[9] = tested on: Streptococcus pneumoniae; assay: Antibacterial activity against penicillin-nonsusceptible Streptococcus pneumoniae assessed as percent susceptible isolates by agar dilution method
[10] = tested on: Streptococcus pneumoniae; assay: Antibacterial activity against penicillin-nonsusceptible Streptococcus pneumoniae isolate by agar dilution method
[11] = tested on: Streptococcus pneumoniae; assay: Antibacterial activity against cefotaxime-resistant Streptococcus pneumoniae isolate by agar dilution method
[12] = tested on: Streptococcus pneumoniae; assay: Antibacterial activity against levofloxacin-resistant Streptococcus pneumoniae isolate by agar dilution method
[13] = tested on: Streptococcus pneumoniae; assay: Antibacterial activity against cefotaxime-resistant Streptococcus pneumoniae assessed as percent susceptible isolates by agar dilution method
[14] = tested on: Streptococcus pneumoniae; assay: Antibacterial activity against erythromycin-resistant Streptococcus pneumoniae isolate by agar dilution method
[15] = tested on: Streptococcus pneumoniae; assay: Antibacterial activity against amoxicillin-intermediate Streptococcus pneumoniae assessed as percent susceptible isolates by agar dilution method
[16] = tested on: Streptococcus pneumoniae; assay: Antibacterial activity against amoxicillin-intermediate Streptococcus pneumoniae isolate by agar dilution method

Compound | MIC50 [1] [µg/mL] | MIC90 [1] [µg/mL] | MIC50 [2] [µg/mL] | MIC90 [2] [µg/mL] | Activity [3] [%] | Activity [5] [%] | Activity [7] [%] | MIC50 [8] [µg/mL] | MIC90 [8] [µg/mL] | Activity [9] [%] | MIC50 [10] [µg/mL] | MIC90 [10] [µg/mL] | MIC50 [11] [µg/mL] | MIC90 [11] [µg/mL] | MIC50 [12] [µg/mL] | MIC90 [12] [µg/mL] | MIC50 [14] [µg/mL] | MIC90 [14] [µg/mL] | MIC50 [16] [µg/mL] | MIC90 [16] [µg/mL] | further results
CO/N=C(\C(=O)N[C@@H]1C(=O)N2C(C(=O)[O-])=C(C[N+]3(C)CCCC3)CS[C@H]12)c1csc(N)n1 | 1 (≈ 2.08 µM) | 2 (≈ 4.16 µM) | 2 (≈ 4.16 µM) | 2 (≈ 4.16 µM) | 82.9 | 64.9 | 29.9 | 2 (≈ 4.16 µM) | 8 (≈ 16.6 µM) | 8.3 | 2 (≈ 4.16 µM) | 4 (≈ 8.32 µM) | 2 (≈ 4.16 µM) | 4 (≈ 8.32 µM) | 0.25 (≈ 0.52 µM) | 2 (≈ 4.16 µM) | 1 (≈ 2.08 µM) | 2 (≈ 4.16 µM) | 2 (≈ 4.16 µM) | 2 (≈ 4.16 µM) | Activity [4]: 66.4%; Activity [6]: 16.4%; Activity [13]: 12.5%; Activity [15]: 40%
CC1(C)S[C@@H]2[C@H](NC(=O)[C@H](N)c3ccc(O)cc3)C(=O)N2[C@H]1C(=O)O [AMOXICILLIN] | 2 (≈ 5.47 µM) | 8 (≈ 21.9 µM) | 4 (≈ 10.9 µM) | 16 (≈ 43.8 µM) | 73.7 | 62.2 | 30.6 | 8 (≈ 21.9 µM) | 16 (≈ 43.8 µM) | 13.3 | 8 (≈ 21.9 µM) | ≥ 16 | 8 (≈ 21.9 µM) | 16 (≈ 43.8 µM) | ≤ 0.06 | 8 (≈ 21.9 µM) | 2 (≈ 5.47 µM) | 8 (≈ 21.9 µM) | 4 (≈ 10.9 µM) | 4 (≈ 10.9 µM) | Activity [4]: 66.7%; Activity [13]: 6.3%; Activity [15]: 0%
CC1(C)S[C@@H]2[C@H](NC(=O)[C@H](N)c3ccccc3)C(=O)N2[C@H]1C(=O)O [AMPICILLIN] | 2 (≈ 5.72 µM) | 8 (≈ 22.9 µM) | 8 (≈ 22.9 µM) | ≥ 16 |  |  |  | 8 (≈ 22.9 µM) |  |  | 8 (≈ 22.9 µM) | ≥ 16 | 8 (≈ 22.9 µM) |  | 0.12 (≈ 0.343 µM) | 8 (≈ 22.9 µM) | 4 (≈ 11.4 µM) | 8 (≈ 22.9 µM) | 4 (≈ 11.4 µM) | 8 (≈ 22.9 µM) | 
CO/N=C(\C(=O)N[C@@H]1C(=O)N2C(C(=O)O)=C(COC(C)=O)CS[C@H]12)c1csc(N)n1 [CEFOTAXIME] | 1 (≈ 2.2 µM) | 2 (≈ 4.39 µM) | 2 (≈ 4.39 µM) | 2 (≈ 4.39 µM) |  | 77 | 0 | 2 (≈ 4.39 µM) | 2 (≈ 4.39 µM) | 25 | 2 (≈ 4.39 µM) | 4 (≈ 8.78 µM) | 4 (≈ 8.78 µM) | 8 (≈ 17.6 µM) | 0.06 (≈ 0.132 µM) | 1 (≈ 2.2 µM) | 1 (≈ 2.2 µM) | 2 (≈ 4.39 µM) | 1 (≈ 2.2 µM) | 2 (≈ 4.39 µM) | Activity [4]: 80.7%; Activity [6]: 49.7%; Activity [15]: 62.4%
CCO/N=C(\C(=O)N[C@@H]1C(=O)N2C(C(=O)[O-])=C(Sc3nc(-c4cc[n+](C)cc4)cs3)CS[C@H]12)c1nsc(NP(=O)(O)O)n1 [CEFTAROLINE FOSAMIL] | 0.12 (≈ 0.175 µM) | 0.12 (≈ 0.175 µM) | 0.12 (≈ 0.175 µM) | 0.25 (≈ 0.365 µM) |  |  |  | 0.12 (≈ 0.175 µM) | 0.25 (≈ 0.365 µM) |  | 0.12 (≈ 0.175 µM) | 0.25 (≈ 0.365 µM) | 0.25 (≈ 0.365 µM) | 0.25 (≈ 0.365 µM) | 0.03 (≈ 0.0438 µM) | 0.12 (≈ 0.175 µM) | 0.12 (≈ 0.175 µM) | 0.25 (≈ 0.365 µM) | 0.12 (≈ 0.175 µM) | 0.25 (≈ 0.365 µM) | 
CO/N=C(\C(=O)N[C@@H]1C(=O)N2C(C(=O)O)=C(CSc3nc(=O)c(O)nn3C)CS[C@H]12)c1csc(N)n1 [CEFTRIAXONE] | 0.5 (≈ 0.902 µM) | 1 (≈ 1.8 µM) | 1 (≈ 1.8 µM) | 1 (≈ 1.8 µM) | 99.3 | 97.1 | 97.2 | 1 (≈ 1.8 µM) | 1 (≈ 1.8 µM) | 83.3 | 1 (≈ 1.8 µM) | 2 (≈ 3.61 µM) | 2 (≈ 3.61 µM) | 4 (≈ 7.21 µM) | 0.06 (≈ 0.108 µM) | 1 (≈ 1.8 µM) | 0.5 (≈ 0.902 µM) | 1 (≈ 1.8 µM) | 1 (≈ 1.8 µM) | 1 (≈ 1.8 µM) | Activity [4]: 98.8%; Activity [6]: 95.2%; Activity [13]: 31.3%; Activity [15]: 95.3%
CO/N=C(\C(=O)N[C@@H]1C(=O)N2C(C(=O)O)=C(COC(N)=O)CS[C@H]12)c1ccco1 [CEFUROXIME] | 4 (≈ 9.43 µM) | 8 (≈ 18.9 µM) | 8 (≈ 18.9 µM) | 16 (≈ 37.7 µM) | 55.3 | 26.8 | 0 | 8 (≈ 18.9 µM) | 16 (≈ 37.7 µM) | 0 | 8 (≈ 18.9 µM) | 16 (≈ 37.7 µM) | 16 (≈ 37.7 µM) | ≥ 32 | 0.25 (≈ 0.589 µM) | 8 (≈ 18.9 µM) | 4 (≈ 9.43 µM) | 8 (≈ 18.9 µM) | 4 (≈ 9.43 µM) | 16 (≈ 37.7 µM) | Activity [4]: 31.6%; Activity [15]: 0%
CC[C@H]1OC(=O)[C@H](C)[C@@H](O[C@H]2C[C@@](C)(OC)[C@@H](O)[C@H](C)O2)[C@H](C)[C@@H](O[C@@H]2O[C@H](C)C[C@H](N(C)C)[C@H]2O)[C@](C)(O)C[C@@H](C)C(=O)[C@H](C)[C@@H](O)[C@]1(C)O [ERYTHROMYCIN] |  |  | 0.25 (≈ 0.341 µM) | ≥ 32 | 40.8 | 0 | 50 | < 0.12 |  | 63.3 | ≤ 0.12 | ≥ 32 |  |  |  |  |  |  | ≥ 32 | ≥ 32 | Activity [6]: 58.2%; Activity [13]: 62.5%; Activity [15]: 30.6%
C[C@H]1COc2c(N3CCN(C)CC3)c(F)cc3c(=O)c(C(=O)O)cn1c23.C[C@H]1COc2c(N3CCN(C)CC3)c(F)cc3c(=O)c(C(=O)O)cn1c23.O [LEVOFLOXACIN] |  |  | ≤ 1 | 1 | 0 | 72 | 97.2 | < 1 | 16 | 95 | ≤ 1 | ≤ 1 |  | 1 | 16 | ≥ 32 |  | 16 | ≤ 1 | 16 | Activity [6]: 86.7%; Activity [13]: 93.8%
CC1(C)S[C@@H]2[C@H](NC(=O)Cc3ccccc3)C(=O)N2[C@H]1C(=O)O [PENICILLIN G] | 1 (≈ 2.99 µM) | 2 (≈ 5.98 µM) | 2 (≈ 5.98 µM) | 4 (≈ 12 µM) | 98 | 93.5 | 76.4 | 2 (≈ 5.98 µM) | 4 (≈ 12 µM) | 0 | 4 (≈ 12 µM) | 4 (≈ 12 µM) | 4 (≈ 12 µM) | 8 (≈ 23.9 µM) | 0.06 (≈ 0.179 µM) | 2 (≈ 5.98 µM) | 1 (≈ 2.99 µM) | 2 (≈ 5.98 µM) | 2 (≈ 5.98 µM) | 2 (≈ 5.98 µM) | Activity [4]: 100%; Activity [6]: 71.5%; Activity [13]: 31.3%; Activity [15]: 94.1%
